Measurements from US5744492A, “Method for inhibiting angiogenesis” (United States of America, priority 1994, dated 1998).

Assays:
Format in all cases: cell-based, human
[1] = system: HUVECs; experiment: HUVEC adhesion to basement membrane substrata
Protocol: (§1) Human umbilical vein endothelial cells (H 930) were generously supplied by Dr. Tom Maciag, American Red Cross (Gaithersburg, Md., USA) and were used between passages 9 and 14 to avoid senescence. HUVECs were grown on fibronectin-coated tissue culture plastic (200 μg/150 mm dish) in complete medium (Medium 199 (M-199) containing 5 U/mL preservative-free heparin, 25.5 μg/mL ECGS, 10% fetal bovine serum and 100 U/mL penicillin, 100 μg/mL streptomycin, and 0.25 μg/mL fungizone).
Adhesion of control and compound 1-treated HUVECs to specific substrata was tested as follows. Glass slides coated with specific adhesion substrata were prepared by placement of 10 μL aliquots of 25 nM each fibronectin,laminin, gelatin or type IV collagen into triplicate wells of multichamber slides. Slides were incubated at 37° C. for 2 hours and then air-dried overnight. The following day the slides were blocked with 300 μL of blocking buffer (Tris […] pH 7.8, NaCl 111 mM, CaCl2 5 mM, and 1% BSA) for 30 min at 37° C. HUVECs were harvested with trypsin-EDTA and allowed to recover at 37° C. in complete medium for at least 1 hr. The cells were then washed free of serum and resuspended at 1×10^6 cells/mL in control medium followed by addition to the coated wells (200 μL) and incubation at 37° C. for 90 min. After incubation, the slides were washed gently three times with DPBS and the adherent cells were fixed and stained as above. Five high power fields per well in triplicate were counted to determine the number of cells attached to the different substrata. Data are expressed as percentage of control cell adhesion (x±SEM, n=3).

[2] = system: HUVECs; experiment: HUVEC proliferation (crystal violet), 10% serum with ECGS; settings: for IC50: Homo sapiens, HUVEC, 10% serum with ECGS, n=3
Protocol: as §1
The effect of compound 1 on HUVEC proliferation was examined over a 5 day period of culture. Cell monolayers were incubated with increasing concentrations of compound 1 and evaluated incrementally for growth inhibition.
Growth inhibition of HUVECs by compound 1 was measured by crystal violet nuclear stain. Briefly, 50,000 cells were seeded per well in 24 well plates using complete medium in the presence of increasing concentrations of compound 1 (0.01-10 μM) or DMS0 vehicle control (0.1%) and cultures were incubated for 24-120 hours. After incubation, cells were washed carefully with Dulbecco's phosphate-buffered saline (DPBS), fixed and stained with 0.5% crystal violet in 20% methanol. Excess stain was removed with water, the cell monolayers were air-dried, and then bound stain was eluted with a 1:1 solution of 0.1N sodium citrate (pH 4.2): 100% ethanol. Optical density of the eluted samples was determined at 540 nm and the results were expressed as percent of DMSO control cell growth. Data are expressed as percentage of control value and are presented as mean±SEM (n=3).

[3] = system: MMP-2; experiment: Northern blot analysis of MMP-2 expression in HUVECs; settings: 24 hr; for inhibition at 10 µM: Homo sapiens, HUVEC
Protocol: as §1
(§2) HUVECs were grown to confluence as described. Fresh complete medium with test compounds was added to confluent cells for an additional 24 hr incubation. bFGF (10 ng/mL), and/or compound 1 (10 μM) or DMSO control (0.1%) were added as indicated below. Total RNA was isolated by the guanidine isothiocyanate/CsCl method. Aliquots of RNA (7.5 μg) were separated on 1% agarose/formaldehyde gels, passively transferred to GeneScreen Plus membrane in 20X SSC, then cross-linked with ultraviolet light. Blots were prewashed for 1 hr at 42° C. in 1M NaCl, 10 mM Tris, 1 mM EDTA, 0.1% SDS and then hybridized overnight at 42° C. with a formamide-containing buffer (hybridization buffer final: 50% formamide, 4X SSC, 10 mM Tris pH 7.5, IX Denhardt solution, 0.2% SDS, 125 μg/ml salmon sperm DNA) with a random-primed 300 bp insert for MMP-2 (gift of Dr. William Stetler-Stevenson, Laboratory of Pathology, NCI). Blots were washed under stringent conditions then exposed to film. After removal of MMP-2 probe, blots were rehybridized with β-actin probe for quantitation of the RNA load. Results were quantitated by densitometric evaluation of the autoradiographs.
(§3) Lane 1 corresponds to the mRNA from HUVECs treated with DMSO (control). Lanes 2-4 show the mRNA isolated from HUVECs treated with compound 1 (10 μM) alone, compound 1 (10 μM) and bFGF (10 ng/mL), bFGF (10 ng/mL) alone, respectively.

[4] = system: β-actin; experiment: Northern blot, β-actin probe for quantitation of RNA load in HUVECs; settings: 24 hr
Protocol: as §1, §2, §3

[5] = system: MMP-2; experiment: Gelatin zymography of HUVEC conditioned medium, MMP-2 gelatinase activity (basal); settings: 24 hr
Protocol: as §1
Angiogenesis is characterized by a local degradation of subendothelial basement membrane by endothelial cell-secreted gelatinases. Aliquots of concentrated HUVEC conditioned medium from compound 1-treated and control cells were subjected to gelatin zymography, in order to test the effect of compound 1 on metalloproteinase production.
Gelatin zymography was carried out as described in Brown, et al., Cancer Research 50:6184-6191 (1990). HUVECs were seeded at 1.2×10^5 /cm^2 in 25 cm^2 fibronectin-coated tissue culture flasks in complete medium containing increasing concentrations of compound 1 (0.1-10 μM) or DMSO vehicle control. After 18 hr of culture, the complete medium was removed and the cells were washed once with serum-free M-199 supplemented with 5 μg/mL bovine insulin, 5 μg/mL human transferrin and 5 ng/mL sodium selenite (ITS). […]

[6] = bFGF 10 ng/mL + Compound 1 10 μM

NC(=O)c1nnn(Cc2cc(Cl)c(C(=O)c3ccc(Cl)cc3)c(Cl)c2)c1N [Compound 1, 5-amino-1-(4-(4-chlorobenzoyl)-3,5-dichlorobenzyl)1,2,3-triazole-4-carboxamide]
inhibition of HUVEC adhesion to all substrata tested (in words) ([1]; 0-10 μM, 18 hr pretreatment): inhibited in a dose-dependent fashion | inhibition of HUVEC adhesion to collagen type IV (in words) ([1]; 1.0 μM, 18 hr pretreatment, P2<0.027): statistically significant | inhibition of HUVEC adhesion to laminin (in words) ([1]; 1.0 μM, 18 hr pretreatment, P2<0.04): statistically significant | inhibition of HUVEC adhesion to fibronectin (in words) ([1]; 1.0 μM, 18 hr pretreatment, P2<0.043): statistically significant | inhibition of HUVEC adhesion to laminin (in words) ([1]; 10.0 μM, 18 hr pretreatment, p2<0.004): statistically significant | inhibition of HUVEC adhesion to fibronectin (in words) ([1]; 10.0 μM, 18 hr pretreatment, p2<0.011): statistically significant | inhibition of HUVEC adhesion to collagen type IV (in words) ([1]; 10.0 μM, 18 hr pretreatment, p2<0.025): statistically significant | inhibition of HUVEC adhesion to gelatin (in words) ([1]; preincubation of HUVECs with compound): did not significantly inhibit adhesion | inhibition of endothelial cell proliferation (in words) ([2]; 0.01-10 μM, 24, 72 and 120 hrs): dose-dependent but not time-dependent inhibition | IC50 ([2]; 24 h, 1 day of culture): 1.31 ± 0.03 µM | IC50 ([2]; 72 h, 3 days of culture): 2.14 ± 0.03 µM | IC50 ([2]; 120 h, 5 days of culture): 2.08 ± 0.01 µM | Corrected values (MMP-2 mRNA corrected for loading) ([3]; Control + Compound 1, 10 μM): 0.30 | MMP-2 (densitometer) ([3]; Control + Compound 1, 10 μM): 38 Densitometer units | inhibition at 10 µM ([3]; no bFGF, vs control, read-out: % Inhibition of native MMP-2 expression): 86% | inhibition at 10 µM ([3]; bFGF 10 ng/mL, vs bFGF, read-out: % Inhibition of MMP-2 expression in presence of bFGF): 62% | Corrected values (MMP-2 mRNA corrected for loading) [3, 6]: 0.14 | MMP-2 (densitometer) [3, 6]: 31 Densitometer units | β-actin (densitometer) ([4]; Control + Compound 1, 10 μM): 127 Densitometer units | β-actin (densitometer) [4, 6]: 210 Densitometer units | inhibition of proMMP-2 and its activated form (in words) ([5]; 0.1-10 μM): dose-dependent inhibition | inhibition at 10 µM ([5]; Homo sapiens, HUVEC, 10.0 μM, read-out: decrease in MMP-2 (densitometric analysis)): 50%
